Results taken from patent publication US9452997B2, “Piperidine and piperazine derivatives as autotaxin inhibitors” (Merck Patent GmbH, priority 2009, dated 2016).

Biological target: T1, Recombinant autotaxin (Homo sapiens, UniProt Q13822)
T1 construct: made in house; host or cells: Hi5 insect cells (baculovirus)
Assay: Autotaxin assay (Amplex Red, LPC substrate)
Type: biochemical
Conditions: for IC50: recombinant autotaxin, LPC substrate, Amplex Red detection, values given as upper bounds; for % CTRL (1E−05): % of control at 1E−05 (compound concentration), uninhibited control = 100%
Outline: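 Recombinant autotaxin (Hi5 baculovirus, 16 ng) pre-incubated with compound 30 min at 22° C, then reacted with 75 μM egg LPC for 90 min at 37° C. Choline released is coupled to H2O2 and Amplex Red fluorescence (ex 485/em 612 nm). IC50 from ten 1:3 dilutions from 30 μM, duplicates, normalised to 500 μM C14 LPA.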

| SMILES | IC50 | % CTRL (1E−05) |
| --- | --- | --- |
| O=C(OCc1cc(F)c(F)c(F)c1)N1CCC(N2CCN(C(=O)c3ccc4[nH]nnc4c3)CC2)CC1 [Compound 79, 4-[4-(1H-Benzotriazole-5-carbonyl)-piperazin-1-yl]-piperidine-1-carboxylic acid 3,4,5-trifluoro-benzyl ester] | < 1000 nM | – |
| O=C(OCc1ccc(Br)cc1)N1CCC(N2CCN(C(=O)c3ccc4[nH]nnc4c3)CC2)CC1 [Compound 80, 4-[4-(1H-Benzotriazole-5-carbonyl)-piperazin-1-yl]-piperidine-1-carboxylic acid 4-bromo-benzyl ester] | < 1000 nM | – |
| O=C(CCc1ccc(Cl)cc1Cl)N1CCC(N2CCN(C(=O)c3ccc4[nH]nnc4c3)CC2)CC1 [Compound 82, 1-{4-[4-(1H-Benzotriazole-5-carbonyl)-piperazin-1-yl]-piperidin-1-yl}-3-(2,4-dichloro-phenyl)-propan-1-one] | < 10000 nM | – |
| O=C(/C=C/c1ccc(Br)cc1F)N1CCC(N2CCN(C(=O)c3ccc4[nH]nnc4c3)CC2)CC1 [Compound 83, (E)-1-{4-[4-(1H-Benzotriazole-5-carbonyl)-piperazin-1-yl]-piperidin-1-yl}-3-(4-bromo-2-fluoro-phenyl)-propenone] | < 1000 nM | – |
| CC(C)c1ccc(CCC(=O)N2CCC(N3CCN(C(=O)c4ccc5[nH]nnc5c4)CC3)CC2)cc1 [Compound 84, 1-{4-[4-(1H-Benzotriazole-5-carbonyl)-piperazin-1-yl]-piperidin-1-yl}-3-(4-isopropyl-phenyl)-propan-1-one] | < 1000 nM | – |
| O=C(OCc1ccc(Cl)c(Cl)c1)N1CCC(N2CCN(C(=O)c3ccc4[nH]nnc4c3)CC2)CC1 [Compound 85, 4-[4-(1H-Benzotriazole-5-carbonyl)-piperazin-1-yl]-piperidine-1-carboxylic acid 3,4-dichloro-benzyl ester] | < 1000 nM | – |
| O=C(OCc1ccc(SC(F)(F)F)cc1)N1CCC(N2CCN(C(=O)c3ccc4[nH]nnc4c3)CC2)CC1 [Compound 86, 4-[4-(1H-Benzotriazole-5-carbonyl)-piperazin-1-yl]-piperidine-1-carboxylic acid 4-trifluoromethylsulfanyl-benzyl ester] | < 1000 nM | – |
| CC(C)c1ccc(COC(=O)N2CCC(N3CCN(C(=O)c4ccc5[nH]nnc5c4)CC3)CC2)cc1 [Compound 87, 4-[4-(1H-Benzotriazole-5-carbonyl)-piperazin-1-yl]-piperidine-1-carboxylic acid 4-isopropyl-benzyl ester] | < 1000 nM | – |
| CS(=O)(=O)c1ccc(CCC(=O)N2CCC(N3CCN(C(=O)c4ccc5[nH]nnc5c4)CC3)CC2)cc1 [Compound 88, 1-{4-[4-(1H-Benzotriazole-5-carbonyl)-piperazin-1-yl]-piperidin-1-yl}-3-(4-methanesulfonyl-phenyl)-propan-1-one] | – | 89% |
| N[C@@H](Cc1c[nH]cn1)C(=O)N1CCN(C2CCN(C(=O)OCc3ccc(C(F)(F)F)cc3)CC2)CC1 [Compound 89, 4-{4-[(S)-2-Amino-3-(1H-imidazol-4-yl)-propionyl]-piperazin-1-yl}-piperidine-1-carboxylic acid 4-trifluoromethyl-benzyl ester] | < 30000 nM | – |
| O=C(/C=C/c1cc(Cl)cc(Cl)c1)N1CCC(N2CCN(C(=O)c3ccc4[nH]nnc4c3)CC2)CC1 [Compound 90, (E)-1-{4-[4-(1H-Benzotriazole-5-carbonyl)-piperazin-1-yl]-piperidin-1-yl}-3-(3,5-dichloro-phenyl)-propenone] | < 1000 nM | – |
| O=C(c1cc(Cl)c(F)c(Cl)c1)N1CCC(N2CCN(C(=O)c3ccc4[nH]nnc4c3)CC2)CC1 [Compound 91, (1H-Benzotriazol-5-yl)-{4-[1-(3,5-dichloro-4-fluoro-benzoyl)-piperidin-4-yl]-piperazin-1-yl}-methanone] | – | 66% |
| O=C(OCc1ccc(C(F)(F)F)c(Cl)c1)N1CCC(N2CCN(C(=O)c3ccc4[nH]nnc4c3)CC2)CC1 [Compound 92, 4-[4-(1H-Benzotriazole-5-carbonyl)-piperazin-1-yl]-piperidine-1-carboxylic acid 3-chloro-4-trifluoromethyl-benzyl ester] | < 1000 nM | – |
| O=C(OCc1cc(Cl)c(F)c(Cl)c1)N1CCC(N2CCN(C(=O)c3ccc4[nH]nnc4c3)CC2)CC1 [Compound 93, 4-[4-(1H-Benzotriazole-5-carbonyl)-piperazin-1-yl]-piperidine-1-carboxylic acid 3,5-dichloro-4-fluoro-benzyl ester] | < 1000 nM | – |
| N#Cc1ccc(CCC(=O)N2CCC(N3CCN(C(=O)c4ccc5[nH]nnc5c4)CC3)CC2)cc1 [Compound 94, 4-(3-{4-[4-(1H-Benzotriazole-5-carbonyl)-piperazin-1-yl]-piperidin-1-yl}-3-oxo-propyl)-benzonitrile] | – | 77% |
| O=C(OCc1cc(Cl)cc(C(F)(F)F)c1)N1CCN(C2CCN(C(=O)c3ccc4[nH]nnc4c3)CC2)CC1 [Compound 95, 4-[1-(1H-Benzotriazole-5-carbonyl)-piperidin-4-yl]-piperazine-1-carboxylic acid 3-chloro-5-trifluoromethyl-benzyl ester] | < 1000 nM | – |

| SMILES | IC50 | % CTRL (1E−05) |
| --- | --- | --- |
| O=C(OCc1ccc(C(F)(F)F)c(Cl)c1)N1CCN(C2CCN(C(=O)c3ccc4[nH]nnc4c3)CC2)CC1 [Compound 96, 4-[1-(1H-Benzotriazole-5-carbonyl)-piperidin-4-yl]-piperazine-1-carboxylic acid 3-chloro-4-trifluoromethyl-benzyl ester] | < 1000 nM | – |
| O=C(OCc1cc(Cl)c(F)c(Cl)c1)N1CCN(C2CCN(C(=O)c3ccc4[nH]nnc4c3)CC2)CC1 [Compound 97, 4-[1-(1H-Benzotriazole-5-carbonyl)-piperidin-4-yl]-piperazine-1-carboxylic acid 3,5-dichloro-4-fluoro-benzyl ester] | < 1000 nM | – |
| Cc1c(Br)cc(COC(=O)N2CCN(C3CCN(C(=O)c4ccc5[nH]nnc5c4)CC3)CC2)cc1Br [Compound 98, 4-[1-(1H-Benzotriazole-5-carbonyl)-piperidin-4-yl]-piperazine-1-carboxylic acid 3,5-dibromo-4-methyl-benzyl ester] | < 1000 nM | – |
| O=C(OCc1cc(Cl)cc(C(F)(F)F)c1F)N1CCN(C2CCN(C(=O)c3ccc4[nH]nnc4c3)CC2)CC1 [Compound 99, 4-[1-(1H-Benzotriazole-5-carbonyl)-piperidin-4-yl]-piperazine-1-carboxylic acid 5-chloro-2-fluoro-3-trifluoromethyl-benzyl ester] | < 1000 nM | – |
| O=C(OCc1ccc(F)c(C(F)(F)F)c1)N1CCN(C2CCN(C(=O)c3ccc4[nH]nnc4c3)CC2)CC1 [Compound 100, 4-[1-(1H-Benzotriazole-5-carbonyl)-piperidin-4-yl]-piperazine-1-carboxylic acid 4-fluoro-3-trifluoromethyl-benzyl ester] | < 1000 nM | – |
| O=C(OCc1ccc(OC(F)(F)F)c(Cl)c1)N1CCN(C2CCN(C(=O)c3ccc4[nH]nnc4c3)CC2)CC1 [Compound 101, 4-[1-(1H-Benzotriazole-5-carbonyl)-piperidin-4-yl]-piperazine-1-carboxylic acid 3-chloro-4-trifluoromethoxy-benzyl ester] | < 1000 nM | – |
| O=C(Cc1ccc(C(F)(F)F)c(F)c1)N1CCN(C2CCN(C(=O)c3ccc4[nH]nnc4c3)CC2)CC1 [Compound 102, 1-{4-[1-(1H-Benzotriazole-5-carbonyl)-piperidin-4-yl]-piperazin-1-yl}-2-(3-fluoro-4-trifluoromethyl-phenyl)-ethanone] | – | 24% |
| O=C(Cc1ccc(C(F)(F)F)cc1F)N1CCN(C2CCN(C(=O)c3ccc4[nH]nnc4c3)CC2)CC1 [Compound 103, 1-{4-[1-(1H-Benzotriazole-5-carbonyl)-piperidin-4-yl]-piperazin-1-yl}-2-(2-fluoro-4-trifluoromethyl-phenyl)-ethanone] | < 30000 nM | – |
| O=C(CCc1cc(Cl)c(F)c(Cl)c1)N1CCN(C2CCN(C(=O)c3ccc4[nH]nnc4c3)CC2)CC1 [Compound 104, 1-{4-[1-(1H-Benzotriazole-5-carbonyl)-piperidin-4-yl]-piperazin-1-yl}-3-(3,5-dichloro-4-fluoro-phenyl)-propan-1-one] | < 10000 nM | – |
| O=C(CCc1ccc(C(F)(F)F)c(F)c1)N1CCN(C2CCN(C(=O)c3ccc4[nH]nnc4c3)CC2)CC1 [Compound 105, 1-{4-[1-(1H-Benzotriazole-5-carbonyl)-piperidin-4-yl]-piperazin-1-yl}-3-(3-fluoro-4-trifluoromethyl-phenyl)-propan-1-one] | < 1000 nM | – |
| Cc1cc(CCC(=O)N2CCN(C3CCN(C(=O)c4ccc5[nH]nnc5c4)CC3)CC2)cc(C)c1F [Compound 106, 1-{4-[1-(1H-Benzotriazole-5-carbonyl)-piperidin-4-yl]-piperazin-1-yl}-3-(4-fluoro-3,5-dimethyl-phenyl)-propan-1-one] | < 10000 nM | – |
| O=C(OCc1ccc(C(F)(F)F)cc1)N1CCC(N2CCC(c3ccc4[nH]c(=O)oc4c3)=N2)CC1 [Compound 107, 4-[3-(2-Oxo-2,3-dihydro-benzooxazol-6-yl)-4,5-dihydro-pyrazol-1-yl]-piperidine-1-carboxylic acid 4-trifluoromethyl-benzyl ester] | < 10000 nM | – |
| O=C(OCc1ccc(C(F)(F)F)cc1)N1CCC(n2ccc(-c3ccc4[nH]c(=O)oc4c3)n2)CC1 [Compound 108] | < 10000 nM | – |
| O=C(OCc1ccc(C(F)(F)F)cc1)N1CCN(CC2CCN(C(=O)c3ccc4[nH]nnc4c3)CC2)CC1 [Compound 109, 4-[1-(1H-Benzotriazole-5-carbonyl)-piperidin-4-ylmethyl]-piperazine-1-carboxylic acid 4-trifluoromethyl-benzyl ester] | < 10000 nM | – |
| O=C(Nc1ccc(N2CCN(C(=O)OCc3ccc(C(F)(F)F)cc3)CC2)nc1)c1ccc2[nH]nnc2c1 [Compound 110, 4-{5-[(1H-Benzotriazole-5-carbonyl)-amino]-pyridin-2-yl}-piperazine-1-carboxylic acid 4-trifluoromethyl-benzyl ester] | < 30000 nM | – |
